Test results reported in US7598234B2, “Steroid derived antibiotics” (Brigham Young University, priority 1998, dated 2009).
Converted amounts (≈) assume the structure as drawn.

Assays:
[1] = system: E. coli (ATCC 10798); experiment: MIC and MBC measurement with E. coli (ATCC 10798); format: cell-based, Escherichia coli
Excerpt: (§1) General: Microorganisms. Reference strains were purchased from the American Type Culture Collection (Rockville, Md.) or Bactrol disks from Difeo Laboratories (Detroit, Mich.). The following specific ATCC strains were used: 10798 Escherichia coli, 25922 Escherichia coli, 13883 Klebsiella pneumoniae, 27853 Pseudomonas aeruginosa, 14028 Salmonella typhimurium, 29212 Enterococcus faecalis, 25923 Staphylococcus aureus, 19615 Streptococcus pyogenes, and 90028 Candida albicans. Bacterial strains were maintained on Mueller-Hinton agar plates, and Candida albicans was maintained on Sabouraud Dextrose agar plates.
(§2) Tryptic soy broth (TSB) was made by dissolving 27.5 grams of tryptic soy broth without dextrose (DIFCO Laboratories) in 1 liter of deionized water and sterilizing at 121° C. for 15 minutes. Solid agar (TSA) plates were made by dissolving 6.4 grams of tryptic soy broth and 12 grams of agar (purified grade, Fischer Scientific) in 800 mL of deionized water and sterilizing at 121° C. for 20 minutes. Aliquots (20 mL) of the homogeneous solution were then poured in sterile plastic petri dishes (100×15 mm, Fisher Scientific). Solutions of compounds were made by dissolving the HCl salt of the respective compound into an appropriate amount of deionized and sterilized water followed by microfiltration.
(§3) Aliquots of 1 mL of the suspension were added to test tubes containing 1 mL TSB and incrementally varied concentrations of cholic acid derivatives and/or erythromycin or novobiocin. In the sensitization experiments, erythromycin or novobiocin were added 15 minutes later than the cholic acid derivatives. The samples were subjected to stationary incubation at 37° C. for 24 hours. Sample turbidity was determined by measuring absorption at 760 nm (HP 8453 UV-Visible Chemstation, Hewlett Packard). Additionally, an alliquot from each of the samples showing no measurable turbidity was subcultured on TSA plates (alliquots were diluted to provide fewer than 300 CFU). Colonies that grew on the subculture after overnight incubation were counted and the number of CFU/mL in the samples were calculated. The calculated values were compared to the number of CFU/mL in the original inoculum.

[2] = system: E. coli (ATCC 10798); experiment: Sensitization to erythromycin (concentration lowering the MIC of erythromycin), E. coli (ATCC 10798); format: cell-based, Escherichia coli
Experimental: (§4) Alternatively, “fractional inhibitory concentration (FIC)” is also useful for determination of synergy between the compounds of the invention, or the compounds in combination with known antibiotics. FICs can be performed by checkerboard titrations of compounds in one dimension of a microtiter plate, and of antibiotics in the other dimension, for example. The FIC is calculated by looking at the impact of one antibiotic on the MIC of the other and vice versa. […] Preferably, an FIC of less than 0.5 is obtained for synergism. As used herein, FIC can be determined as follows:
as §3
(§5) Ability to permeabilize outer membrane: Compounds 11, 106, and 108-114 (FIG. 1) were tested for antibiotic activity. They were also tested for the ability to permeabilize the outer membrane of Gram-negative bacteria, causing sensitization to hydrophobic antibiotics that cannot cross the outer membrane. The permeabilization of the outer membrane was measured using erythromycin and novobiocin.
(§6) The MICs of erythromycin and novobiocin against E. coli (ATCC 10798) at 70 and >500 μg/mL were measured.

[3] = system: E. coli (ATCC 10798); experiment: Sensitization to novobiocin (concentration lowering the MIC of novobiocin), E. coli (ATCC 10798); format: cell-based, Escherichia coli
Experimental: as §4, §3, §5, §6

[4] = system: E. coli (ATCC 25922); experiment: MIC and MBC measurement with E. coli (ATCC 25922); format: cell-based, Escherichia coli; settings: for MIC (MIC^b): Table 16, E. coli (ATTC 25922)
Excerpt: as §1, §2
as §3, with “inoculum. […]” for “inoculum.”

[5] = system: E. coli (ATCC 25922); experiment: Sensitization to erythromycin, E. coli (ATCC 25922); format: cell-based, Escherichia coli; settings: for c: concentration required to lower the MIC of erythromycin from 36 to 1 μg/mL: Table 16, E. coli
Experimental: FICs can be performed by checkerboard titrations of compounds in one dimension of a microtiter plate, and of antibiotics in the other dimension, for example. The FIC is calculated by looking at the impact of one antibiotic on the MIC of the other and vice versa. […] Preferably, an FIC of less than 0.5 is obtained for synergism. As used herein, FIC can be determined as follows:
as §3
Concentrations of 0.5, 1.0 or 3.0 μg/mL of these antibiotics were used, and the concentrations of the cholic acid derivatives required to inhibit bacterial growth of Gram-negative strains were determined.
(§7) Minimum inhibition concentrations (MIC) and minimum hemolytic concentrations (MHC) were measured as described in Li et al., Antimicrob. Agents. Chemother., 1999, 43, 1347.

[6] = system: Pseudomonas aeruginosa (ATCC 27853); experiment: MIC and MBC measurement with Pseudomonas aeruginosa (ATCC 27853); format: cell-based
Excerpt: as §1, §2, §3

[7] = system: Pseudomonas aeruginosa (ATCC 27853); experiment: Sensitization to erythromycin, Pseudomonas aeruginosa (ATCC 27853); format: cell-based
Experimental: as §4
as §3, with “inoculum. […]” for “inoculum.”
(§8) To measure permeabilization, the FIC values for compounds 1, 2, 5, 106, 10, 112, 133, and 134 with erythromycin, novobiocin, and rifampicin were determined. Concentrations of 0.5, 1.0 or 3.0 μg/mL of these antibiotics were used, and the concentrations of the cholic acid derivatives required to inhibit bacterial growth of Gram-negative strains were determined.

[8] = system: Pseudomonas aeruginosa (ATCC 27853); experiment: Sensitization to novobiocin, Pseudomonas aeruginosa (ATCC 27853); format: cell-based; settings: Table 8; P. aureginosa (ATCC 27853)
Experimental: as §4
as §3, with “inoculum. […]” for “inoculum.”
as §8

[9] = system: Klebsiella pneumonia ATCC 13883; experiment: MIC and MBC measurement with Klebsiella pneumoniae ATCC 13883; format: cell-based; settings: Table 10
Excerpt: as §1, §2, §3

[10] = system: Salmonella typhimurium ATCC 14028; experiment: MIC and MBC measurement with Salmonella typhimurium ATCC 14028; format: cell-based; settings: Table 10
Excerpt: as §1, §2, §3

[11] = system: Enterococcus faecalis ATCC 29212; experiment: MIC and MBC measurement with Enterococcus faecalis ATCC 29212; format: cell-based; settings: Table 10
Excerpt: as §1, §2, §3

[12] = system: Staphylococcus aureus ATCC 25923; experiment: MIC and MBC measurement with Staphylococcus aureus ATCC 25923; format: cell-based; settings: for MIC (MIC^a): Table 16, S. aureus (ATTC 25923)
Excerpt: as §1, §2
as §3, with “inoculum. […]” for “inoculum.”

[13] = system: Streptococcus pyrogenes ATCC 19615; experiment: MIC and MBC measurement with Streptococcus pyogenes ATCC 19615; format: cell-based; settings: Table 10
Excerpt: as §1, §2, §3

[14] = system: Candida albicans ATCC 90028; experiment: MIC and MBC measurement with Candida albicans ATCC 90028; format: cell-based; settings: Table 10
Excerpt: as §1, §2, §3

[15] = Experimental: as §7
[16] = system: Gram-negative bacteria; experiment: Sensitization to erythromycin, ester and amide side chain compounds (Table 14); format: cell-based; settings: in words; compared with Table 14 compounds
Experimental: as §3, §5
Ester and amide side chains: Additional compounds, for example, compounds with amide and ester side chains, were tested.

[17] = Table 6, P. aureginosa (ATCC 27853)
[18] = Table 9, Escherichia coli (ATCC 10798)
[19] = Table 10, Escherichia coli ATCC 25922
[20] = Table 10, Pseudomonas aeruginosa ATCC 27853
[21] = Table 10, Staphylococcus aureus ATCC 25923

C[C@H](CCCN(C)Cc1ccccc1)[C@H]1CC[C@H]2[C@@H]3[C@H](OCCNC(=N)N)C[C@@H]4C[C@H](OCCNC(=N)N)CC[C@]4(C)[C@H]3C[C@H](OCCNC(=N)N)[C@]12C [Compound 4]
MBC ([1]; Table 1, E. coli (ATCC 10798)): 10 µg/mL (≈ 13.3 µM) | MIC ([1]; Table 1, E. coli (ATCC 10798)): 5 µg/mL (≈ 6.64 µM) | MIC: concentration required to lower the MIC of erythromycin from 70 μg/mL to 1 μg/mL ([2]; Table 2, E. coli (ATCC 10798)): 1.5 µg/mL | MBC (with erythromycin) ([2]; Table 2, E. coli (ATCC 10798), erythromycin sensitization): 10 µg/mL | MIC: concentration required to lower the MIC of novobiocin from >500 μg/mL to 1 μg/mL ([3]; Table 3, E. coli (ATCC 10798)): 5 µg/mL | MBC (with novobiocin) ([3]; Table 3, E. coli (ATCC 10798), novobiocin sensitization): 10 µg/mL | MBC ([4]; Table 4, E. coli (ATCC 25922)): 9 µg/mL (≈ 12 µM) | MIC ([4]; Table 4, E. coli (ATCC 25922)): 6 µg/mL (≈ 7.97 µM) | MIC: concentration required to lower the MIC of erythromycin from 60 μg/mL to 1 μg/mL ([5]; Table 5, E. coli (ATCC 25922)): 1 µg/mL | MBC (with erythromycin) ([5]; Table 5, E. coli (ATCC 25922), erythromycin sensitization): 5 µg/mL | MBC [6, 17]: 40 µg/mL (≈ 53.1 µM) | MIC [6, 17]: 15 µg/mL (≈ 19.9 µM) | MIC: concentration required to lower the MIC of erythromycin from 240 μg/mL to 5 μg/mL ([7]; Table 7, P. aureginosa (ATCC 27853)): 5 µg/mL | MBC (with erythromycin) ([7]; Table 7, P. aureginosa (ATCC 27853), erythromycin sensitization): 40 µg/mL | MIC: concentration required to lower the MIC of novobiocin from >500 μg/mL to 1 μg/mL [8]: 6 µg/mL

CCCCCOCCC[C@@H](C)[C@H]1CC[C@H]2[C@@H]3[C@H](OCCCN)C[C@@H]4C[C@H](OCCCN)CC[C@]4(C)[C@H]3C[C@H](OCCCN)[C@]12C [Compound 113]
MBC [1, 18]: 5.0 µg/mL (≈ 7.86 µM) | MIC [1, 18]: 3.0 µg/mL (≈ 4.72 µM) | (a) Concentration required to lower the MIC of erythromycin from 70 to 1 μg/mL [2, 18]: 0.8 µg/mL | (b) MBC with 1 μg/mL erythromycin [2, 18]: 2.0 µg/mL | FIC values with erythromycin [2, 18]: 0.28 | (d) Concentration required to lower the MIC of novobiocin from >500 to 1 μg/mL [3, 18]: 1.0 µg/mL | FIC values with novobiocin [3, 18]: 0.27

CCCCCCCCNCCC[C@@H](C)[C@H]1CC[C@H]2[C@@H]3[C@H](OCCCN)C[C@@H]4C[C@H](OCCCN)CC[C@]4(C)[C@H]3C[C@H](OCCCN)[C@]12C [Compound 133]
MIC (in words) ([1]; FIG. 5, strain not named): very low | MBC [4, 19]: 3.0 µg/mL (≈ 4.43 µM) | MIC [4, 19]: 3.0 µg/mL (≈ 4.43 µM) | FIC ([5]; Table 11, Escherichia coli ATCC 25922, erythromycin (by order)): 0.42 | concentration required to inhibit bacterial growth with antibiotic ([5]; Table 11, Escherichia coli ATCC 25922, erythromycin (by order) at 0.5, 1.0 or 3.0 μg/mL): 1.2 µg/mL | MBC [6, 20]: 3.2 µg/mL (≈ 4.73 µM) | MIC [6, 20]: 2.0 µg/mL (≈ 2.95 µM) | FIC ([7]; Table 11, Pseudomonas aeruginosa ATCC 27853, erythromycin (by order)): 0.21 | concentration required to inhibit bacterial growth with antibiotic ([7]; Table 11, Pseudomonas aeruginosa ATCC 27853, erythromycin (by order) at 0.5, 1.0 or 3.0 μg/mL): 0.35 µg/mL | MBC [9]: 5.8 µg/mL (≈ 8.57 µM) | MIC [9]: 2.6 µg/mL (≈ 3.84 µM) | MBC [10]: 6.7 µg/mL (≈ 9.89 µM) | MIC [10]: 2.6 µg/mL (≈ 3.84 µM) | MBC [11]: 5.5 µg/mL (≈ 8.12 µM) | MIC [11]: 3.1 µg/mL (≈ 4.58 µM) | MBC [12, 21]: 2.0 µg/mL (≈ 2.95 µM) | MIC [12, 21]: 0.4 µg/mL (≈ 0.591 µM) | MBC [13]: 2.9 µg/mL (≈ 4.28 µM) | MIC [13]: 2.3 µg/mL (≈ 3.4 µM) | MBC [14]: 45 µg/mL (≈ 66.5 µM) | MIC [14]: 31 µg/mL (≈ 45.8 µM) | MHC [15]: 29 µg/mL

C[C@H](CCCO)[C@H]1CC[C@H]2[C@@H]3[C@H](N)C[C@@H]4C[C@H](N)CC[C@]4(C)[C@H]3C[C@H](N)[C@]12C [Compound 206]
activity as a permeabilizer [16]: ineffective as a permeabilizer

C[C@H](CCC(=O)O)[C@H]1CC[C@H]2[C@@H]3[C@H](OC(=O)CN)C[C@@H]4C[C@H](OC(=O)CN)CC[C@]4(C)[C@H]3C[C@H](OC(=O)CN)[C@]12C [Compound 327]
MIC (MIC^b) [4]: >100 µg/mL | c: concentration required to lower the MIC of erythromycin from 36 to 1 μg/mL [5]: >100 µg/mL | MIC (MIC^a) [12]: >100 µg/mL | MHC (minimum hemolytic concentration) [15]: >100 µg/mL

CCCCCCCCOC(=O)CC[C@@H](C)[C@H]1CC[C@H]2[C@@H]3[C@H](OC(=O)CN)C[C@@H]4C[C@H](OC(=O)CN)CC[C@]4(C)[C@H]3C[C@H](OC(=O)CN)[C@]12C [Compound 341]
MIC (MIC^b) [4]: 1.0 µg/mL (≈ 1.45 µM) | c: concentration required to lower the MIC of erythromycin from 36 to 1 μg/mL [5]: 0.7 µg/mL | MIC (MIC^a) [12]: 1.8 µg/mL (≈ 2.6 µM)

CCCCCCCCOC(=O)CC[C@@H](C)[C@H]1CC[C@H]2[C@@H]3[C@H](OC(=O)CCCN)C[C@@H]4C[C@H](OC(=O)CCCN)CC[C@]4(C)[C@H]3C[C@H](OC(=O)CCCN)[C@]12C [Compound 343]
MIC (MIC^b) [4]: 3.5 µg/mL (≈ 4.51 µM) | c: concentration required to lower the MIC of erythromycin from 36 to 1 μg/mL [5]: 3.5 µg/mL | MIC (MIC^a) [12]: 1.2 µg/mL (≈ 1.55 µM)

polymyxin B [PMB, reference compound]
MBC [4, 19]: 1.8 µg/mL | MBC [12, 21]: >100 µg/mL
